Laboratory results reported in patent US20100041089A1, “IMPROVED METHOD FOR DETECTING CHEMICAL […]” (priority 2006, published 2010).

System: yeast genes (expressed mRNA)
Assay: DNA chip measurement of expressed mRNA of yeast genes after culture with a toxic chemical substance
Format: cell-based, Saccharomyces cerevisiae S288C
How it was run: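 Expression is given as treated/untreated fluorescence ratio on a whole-genome yeast DNA chip, a ratio of two or more being significant. Log-phase S288C cultures in YPD at 25 °C received the chemical for 2 h at a dose that slows growth without killing. mRNA was reverse-transcribed with Cy3- or Cy5-dUTP.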

Oc1cc(Cl)c(Cl)cc1Cl [(6), 2,4,5-Trichlorophenol]
The level of expressed mRNA in the presence of chemical substance/The level of expressed mRNA in the absence of chemical substance (yeast gene YAL053W, cultured two hours with substance): 1.1 | The level of expressed mRNA in the presence of chemical substance/The level of expressed mRNA in the absence of chemical substance (yeast gene YAR028W, cultured two hours with substance): 3.3 | The level of expressed mRNA in the presence of chemical substance/The level of expressed mRNA in the absence of chemical substance (yeast gene YBL043W): 26.9 | The level of expressed mRNA in the presence of chemical substance/The level of expressed mRNA in the absence of chemical substance (yeast gene YBL048W, cultured two hours with substance): 2.0 | The level of expressed mRNA in the presence of chemical substance/The level of expressed mRNA in the absence of chemical substance (yeast gene YBL107C, cultured two hours with substance): 1.1 | The level of expressed mRNA in the presence of chemical substance/The level of expressed mRNA in the absence of chemical substance (yeast gene YBR026C): 0.1 | The level of expressed mRNA in the presence of chemical substance/The level of expressed mRNA in the absence of chemical substance (yeast gene YBR072W (stress protein genes)): 32.2 | The level of expressed mRNA in the presence of chemical substance/The level of expressed mRNA in the absence of chemical substance (yeast gene YBR145W): 11.5 | The level of expressed mRNA in the presence of chemical substance/The level of expressed mRNA in the absence of chemical substance (yeast gene YBR145W (detoxification protein gene)): 11.5 | The level of expressed mRNA in the presence of chemical substance/The level of expressed mRNA in the absence of chemical substance (yeast gene YBR145W, cultured for two hours with substance): 11.5 | The level of expressed mRNA in the presence of chemical substance/The level of expressed mRNA in the absence of chemical substance (yeast gene YBR169C (stress protein genes)): 4.9 | The level of expressed mRNA in the presence of chemical substance/The level of expressed mRNA in the absence of chemical substance (yeast gene YDL072C, cultured two hours with substance): 1.5 | The level of expressed mRNA in the presence of chemical substance/The level of expressed mRNA in the absence of chemical substance (yeast gene YDL204W, cultured two hours with substance): 5.6 | The level of expressed mRNA in the presence of chemical substance/The level of expressed mRNA in the absence of chemical substance (yeast gene YDL206W (transport facilitation protein genes)): 5.7 | The level of expressed mRNA in the presence of chemical substance/The level of expressed mRNA in the absence of chemical substance (yeast gene YDL222C, cultured two hours with substance): 1.4 | The level of expressed mRNA in the presence of chemical substance/The level of expressed mRNA in the absence of chemical substance (yeast gene YDR031W, cultured two hours with substance): 3.6 | The level of expressed mRNA in the presence of chemical substance/The level of expressed mRNA in the absence of chemical substance (yeast gene YDR033W (stress protein genes)): 6.7 | The level of expressed mRNA in the presence of chemical substance/The level of expressed mRNA in the absence of chemical substance (yeast gene YDR315C): 9.4 | The level of expressed mRNA in the presence of chemical substance/The level of expressed mRNA in the absence of chemical substance (yeast gene YDR330W, cultured two hours with substance): 2.3 | The level of expressed mRNA in the presence of chemical substance/The level of expressed mRNA in the absence of chemical substance (yeast gene YDR391C, cultured two hours with substance): 2.8 | The level of expressed mRNA in the presence of chemical substance/The level of expressed mRNA in the absence of chemical substance (yeast gene YDR406W (transport facilitation protein gene)): 5.9 | The level of expressed mRNA in the presence of chemical substance/The level of expressed mRNA in the absence of chemical substance (yeast gene YDR411C, cultured two hours with substance): 0.8 | The level of expressed mRNA in the presence of chemical substance/The level of expressed mRNA in the absence of chemical substance (yeast gene YDR511W, cultured two hours with substance): 2.0 | The level of expressed mRNA in the presence of chemical substance/The level of expressed mRNA in the absence of chemical substance (yeast gene YDR545W, cultured two hours with substance): 1.0 | The level of expressed mRNA in the presence of chemical substance/The level of expressed mRNA in the absence of chemical substance (yeast gene YEL001C, cultured two hours with substance): 1.3 | The level of expressed mRNA in the presence of chemical substance/The level of expressed mRNA in the absence of chemical substance (yeast gene YER004W, cultured two hours with substance): 1.2 | The level of expressed mRNA in the presence of chemical substance/The level of expressed mRNA in the absence of chemical substance (yeast gene YER035W, cultured two hours with substance): 0.9 | The level of expressed mRNA in the presence of chemical substance/The level of expressed mRNA in the absence of chemical substance (yeast gene YER079W, cultured two hours with substance): 1.5 | The level of expressed mRNA in the presence of chemical substance/The level of expressed mRNA in the absence of chemical substance (yeast gene YER106W, cultured two hours with substance): 1.1 | The level of expressed mRNA in the presence of chemical substance/The level of expressed mRNA in the absence of chemical substance (yeast gene YER158C, cultured two hours with substance): 0.7 | The level of expressed mRNA in the presence of chemical substance/The level of expressed mRNA in the absence of chemical substance (yeast gene YER163C, cultured two hours with substance): 2.0 | The level of expressed mRNA in the presence of chemical substance/The level of expressed mRNA in the absence of chemical substance (yeast gene YER175C, cultured two hours with substance): 0.8 | The level of expressed mRNA in the presence of chemical substance/The level of expressed mRNA in the absence of chemical substance (yeast gene YFL006W, cultured two hours with substance): 1.2 | The level of expressed mRNA in the presence of chemical substance/The level of expressed mRNA in the absence of chemical substance (yeast gene YFL010C, cultured two hours with substance): 1.9 | The level of expressed mRNA in the presence of chemical substance/The level of expressed mRNA in the absence of chemical substance (yeast gene YFL014W, DNA repair protein genes, cultured two hours with substance): 9.3 | The level of expressed mRNA in the presence of chemical substance/The level of expressed mRNA in the absence of chemical substance (yeast gene YFL024C, cultured two hours with substance): 2.0 | The level of expressed mRNA in the presence of chemical substance/The level of expressed mRNA in the absence of chemical substance (yeast gene YFL032W, cultured two hours with substance): 0.6 | The level of expressed mRNA in the presence of chemical substance/The level of expressed mRNA in the absence of chemical substance (yeast gene YGL037C, cultured two hours with substance): 1.3 | The level of expressed mRNA in the presence of chemical substance/The level of expressed mRNA in the absence of chemical substance (yeast gene YGL047W, cultured two hours with substance): 1.5 | The level of expressed mRNA in the presence of chemical substance/The level of expressed mRNA in the absence of chemical substance (yeast gene YGL053W, cultured two hours with substance): 2.7 | The level of expressed mRNA in the presence of chemical substance/The level of expressed mRNA in the absence of chemical substance (yeast gene YGL117W, cultured two hours with substance): 0.9 | The level of expressed mRNA in the presence of chemical substance/The level of expressed mRNA in the absence of chemical substance (yeast gene YGL121C, cultured two hours with substance): 9.8 | The level of expressed mRNA in the presence of chemical substance/The level of expressed mRNA in the absence of chemical substance (yeast gene YGL199C, cultured two hours with substance): 0.7 | The level of expressed mRNA in the presence of chemical substance/The level of expressed mRNA in the absence of chemical substance (yeast gene YGR043C): 16.3 | The level of expressed mRNA in the presence of chemical substance/The level of expressed mRNA in the absence of chemical substance (yeast gene YGR043C, cultured for two hours with substance): 16.3 | The level of expressed mRNA in the presence of chemical substance/The level of expressed mRNA in the absence of chemical substance (yeast gene YGR101W, cultured two hours with substance): 0.9 | The level of expressed mRNA in the presence of chemical substance/The level of expressed mRNA in the absence of chemical substance (yeast gene YGR108W): 0.1 | The level of expressed mRNA in the presence of chemical substance/The level of expressed mRNA in the absence of chemical substance (yeast gene YGR110W, cultured two hours with substance): 0.9 | The level of expressed mRNA in the presence of chemical substance/The level of expressed mRNA in the absence of chemical substance (yeast gene YGR130C, cultured two hours with substance): 0.9 | The level of expressed mRNA in the presence of chemical substance/The level of expressed mRNA in the absence of chemical substance (yeast gene YGR154C, cultured two hours with substance): 1.4 | The level of expressed mRNA in the presence of chemical substance/The level of expressed mRNA in the absence of chemical substance (yeast gene YGR221C, cultured two hours with substance): 3.0 | The level of expressed mRNA in the presence of chemical substance/The level of expressed mRNA in the absence of chemical substance (yeast gene YHL040C (detoxification protein gene)): 7.3 | The level of expressed mRNA in the presence of chemical substance/The level of expressed mRNA in the absence of chemical substance (yeast gene YHL040C (transport facilitation protein gene)): 7.3 | The level of expressed mRNA in the presence of chemical substance/The level of expressed mRNA in the absence of chemical substance (yeast gene YHR029C, cultured two hours with substance): 2.7 | The level of expressed mRNA in the presence of chemical substance/The level of expressed mRNA in the absence of chemical substance (yeast gene YHR138C, cultured two hours with substance): 3.8 | The level of expressed mRNA in the presence of chemical substance/The level of expressed mRNA in the absence of chemical substance (yeast gene YHR199C, cultured two hours with substance): 1.1 | The level of expressed mRNA in the presence of chemical substance/The level of expressed mRNA in the absence of chemical substance (yeast gene YIL023C, cultured two hours with substance): 0.9 | The level of expressed mRNA in the presence of chemical substance/The level of expressed mRNA in the absence of chemical substance (yeast gene YIL024C, cultured two hours with substance): 1.0 | The level of expressed mRNA in the presence of chemical substance/The level of expressed mRNA in the absence of chemical substance (yeast gene YIL041W, cultured two hours with substance): 1.0 | The level of expressed mRNA in the presence of chemical substance/The level of expressed mRNA in the absence of chemical substance (yeast gene YIL087C, cultured two hours with substance): 4.1 | The level of expressed mRNA in the presence of chemical substance/The level of expressed mRNA in the absence of chemical substance (yeast gene YIL117C, cultured two hours with substance): 1.2 | The level of expressed mRNA in the presence of chemical substance/The level of expressed mRNA in the absence of chemical substance (yeast gene YJL057C, cultured two hours with substance): 1.4 | The level of expressed mRNA in the presence of chemical substance/The level of expressed mRNA in the absence of chemical substance (yeast gene YJL066C, cultured two hours with substance): 1.4 | The level of expressed mRNA in the presence of chemical substance/The level of expressed mRNA in the absence of chemical substance (yeast gene YJL082W, cultured two hours with substance): 0.2 | The level of expressed mRNA in the presence of chemical substance/The level of expressed mRNA in the absence of chemical substance (yeast gene YJL108C, cultured two hours with substance): 0.6 | The level of expressed mRNA in the presence of chemical substance/The level of expressed mRNA in the absence of chemical substance (yeast gene YJL149W, cultured two hours with substance): 0.7 | The level of expressed mRNA in the presence of chemical substance/The level of expressed mRNA in the absence of chemical substance (yeast gene YJL151C, cultured two hours with substance): 2.2 | The level of expressed mRNA in the presence of chemical substance/The level of expressed mRNA in the absence of chemical substance (yeast gene YJL152W, cultured two hours with substance): 1.5 | The level of expressed mRNA in the presence of chemical substance/The level of expressed mRNA in the absence of chemical substance (yeast gene YJL161W, cultured two hours with substance): 8.0 | The level of expressed mRNA in the presence of chemical substance/The level of expressed mRNA in the absence of chemical substance (yeast gene YJL171C, cultured two hours with substance): 2.7 | The level of expressed mRNA in the presence of chemical substance/The level of expressed mRNA in the absence of chemical substance (yeast gene YJL186W, cultured two hours with substance): 0.7 | The level of expressed mRNA in the presence of chemical substance/The level of expressed mRNA in the absence of chemical substance (yeast gene YJR008W, cultured two hours with substance): 2.2
